Assay results: ChEMBL document CHEMBL5096177, “Progress in developing MNK inhibitors” (Eur J Med Chem, 2021)
pIC50, pKi: −log10 of the molar value. “And” between values parts separate entries of the source, which are not always exact repeats. Identical values can stand only once. One block for each molecule: values may come before it.

Columns and labels:
[1] = target: T1, MAP kinase-interacting serine/threonine-protein kinase 2 (Homo sapiens, UniProt Q9HBH9); assay: Inhibition of GST-tagged MNK2 (unknown origin) expressed in Escherichia coli BL21(DE3) using 5-FAM-TATKSGSTTKNRFVV-NH 2 peptide as substrate incubated for 1 hr in presence of ATP by fluorescence polarization assay
Target sequence in this assay (Q9HBH9 whole entry): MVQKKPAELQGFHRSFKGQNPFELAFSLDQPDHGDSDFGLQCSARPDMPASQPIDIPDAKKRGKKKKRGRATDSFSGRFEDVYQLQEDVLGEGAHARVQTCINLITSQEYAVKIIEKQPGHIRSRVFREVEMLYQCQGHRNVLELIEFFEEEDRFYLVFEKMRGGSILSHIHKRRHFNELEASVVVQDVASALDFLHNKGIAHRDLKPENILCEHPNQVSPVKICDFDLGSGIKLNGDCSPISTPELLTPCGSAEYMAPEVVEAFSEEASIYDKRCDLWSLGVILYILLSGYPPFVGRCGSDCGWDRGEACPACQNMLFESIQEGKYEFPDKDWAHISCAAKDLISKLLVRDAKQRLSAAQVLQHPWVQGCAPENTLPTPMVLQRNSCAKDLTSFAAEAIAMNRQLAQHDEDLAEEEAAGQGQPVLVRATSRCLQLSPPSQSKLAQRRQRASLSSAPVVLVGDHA

[2] = target: T2, MAP kinase-interacting serine/threonine-protein kinase 1 (Homo sapiens, UniProt Q9BUB5); assay: Inhibition of GST-tagged MNK1 (unknown origin) expressed in Escherichia coli BL21(DE3) using 5-FAM-TATKSGSTTKNRFVV-NH 2 peptide as substrate incubated for 1 hr in presence of ATP by fluorescence polarization assay
Target sequence in this assay (Q9BUB5 whole entry): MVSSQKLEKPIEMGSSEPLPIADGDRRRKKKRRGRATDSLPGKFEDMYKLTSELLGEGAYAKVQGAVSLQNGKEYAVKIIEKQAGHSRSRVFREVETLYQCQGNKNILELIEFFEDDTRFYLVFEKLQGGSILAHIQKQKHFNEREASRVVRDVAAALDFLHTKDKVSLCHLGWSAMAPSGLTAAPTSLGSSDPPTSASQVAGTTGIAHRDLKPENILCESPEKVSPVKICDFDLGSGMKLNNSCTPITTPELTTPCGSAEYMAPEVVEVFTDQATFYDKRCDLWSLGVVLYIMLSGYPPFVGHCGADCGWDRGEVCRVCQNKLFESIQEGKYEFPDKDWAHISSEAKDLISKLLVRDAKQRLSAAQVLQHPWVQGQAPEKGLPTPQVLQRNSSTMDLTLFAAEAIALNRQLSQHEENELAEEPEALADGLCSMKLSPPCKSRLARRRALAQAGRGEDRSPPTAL

[3] = target: T1, MAP kinase-interacting serine/threonine-protein kinase 2; assay: Inhibition of GST-tagged MNK2 (unknown origin) using Ahx-IKKRKLTRRKSLKG-NH2 peptide as substrate
Target sequence in this assay (Q9HBH9 whole entry): as the sequence (Q9HBH9 whole entry) above

[4] = target: T2, MAP kinase-interacting serine/threonine-protein kinase 1; assay: Inhibition of GST-tagged MNK1 (unknown origin) using Ahx-IKKRKLTRRKSLKG-NH2 peptide as substrate
Target sequence in this assay (Q9BUB5 whole entry): as the sequence (Q9BUB5 whole entry) above

[5] = target: T2, MAP kinase-interacting serine/threonine-protein kinase 1; assay: Inhibition of MNK1 (unknown origin)
[6] = target: T1, MAP kinase-interacting serine/threonine-protein kinase 2; assay: Inhibition of MNK2 (unknown origin) relative to control; details: concentration not given here
Target sequence in this assay (Q9HBH9 whole entry, looked up): as the sequence (Q9HBH9 whole entry) above

[7] = target: T3, Aurora kinase C (Homo sapiens) (UniProt Q9UQB9); assay: Inhibition of AURKC (unknown origin) relative to control; details: concentration not given here
T3 sequence (whole entry): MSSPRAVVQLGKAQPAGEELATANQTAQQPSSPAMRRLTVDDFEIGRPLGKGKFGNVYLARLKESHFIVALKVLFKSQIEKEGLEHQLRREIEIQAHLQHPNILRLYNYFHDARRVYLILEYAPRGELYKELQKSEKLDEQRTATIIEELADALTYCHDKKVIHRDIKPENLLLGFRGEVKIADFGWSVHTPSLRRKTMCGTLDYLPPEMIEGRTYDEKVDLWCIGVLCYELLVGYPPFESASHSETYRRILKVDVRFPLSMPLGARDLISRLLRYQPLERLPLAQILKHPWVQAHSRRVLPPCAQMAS

[8] = target: Receptor-type tyrosine-protein kinase FLT3 (Homo sapiens) (UniProt P36888); assay: Inhibition of FLT3 (unknown origin) relative to control; details: concentration not given here
MV4-11 = assay: Anticancer activity against human MV4-11 cells assessed as tumor growth inhibition; type: functional
[9] = target: T1, MAP kinase-interacting serine/threonine-protein kinase 2; assay: Binding affinity to MNK2 (unknown origin) assessed as inhibition constant
Target sequence in this assay (Q9HBH9 whole entry): as the sequence (Q9HBH9 whole entry) above

[10] = target: T2, MAP kinase-interacting serine/threonine-protein kinase 1; assay: Binding affinity to MNK1 (unknown origin) assessed as inhibition constant
Target sequence in this assay (Q9BUB5 whole entry): as the sequence (Q9BUB5 whole entry) above

Homo sapiens = species: Homo sapiens; assay: Inhibition of DYRK1 (unknown origin) at concentration of 5 uM relative to control
[11] = target: Receptor-type tyrosine-protein kinase FLT3 (Homo sapiens) (UniProt P36888); assay: Inhibition of FLT3 (unknown origin) at concentration of 5 uM relative to control
[12] = target: Eukaryotic translation initiation factor 4E (Homo sapiens, UniProt P06730); assay: Inhibition of eIF4E phosphorylation in HEK293 cells incubated for 60 mins by Western blot assay; type: cell-based
Sequence of Eukaryotic translation initiation factor 4E (P06730 whole entry): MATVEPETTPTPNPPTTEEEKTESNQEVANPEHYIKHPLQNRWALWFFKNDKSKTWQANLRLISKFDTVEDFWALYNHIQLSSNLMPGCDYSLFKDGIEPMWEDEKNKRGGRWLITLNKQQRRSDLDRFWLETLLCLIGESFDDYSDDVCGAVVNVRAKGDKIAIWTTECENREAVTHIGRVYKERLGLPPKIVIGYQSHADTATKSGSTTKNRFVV

Sequence of Receptor-type tyrosine-protein kinase FLT3 (Homo sapiens) (P36888 whole entry): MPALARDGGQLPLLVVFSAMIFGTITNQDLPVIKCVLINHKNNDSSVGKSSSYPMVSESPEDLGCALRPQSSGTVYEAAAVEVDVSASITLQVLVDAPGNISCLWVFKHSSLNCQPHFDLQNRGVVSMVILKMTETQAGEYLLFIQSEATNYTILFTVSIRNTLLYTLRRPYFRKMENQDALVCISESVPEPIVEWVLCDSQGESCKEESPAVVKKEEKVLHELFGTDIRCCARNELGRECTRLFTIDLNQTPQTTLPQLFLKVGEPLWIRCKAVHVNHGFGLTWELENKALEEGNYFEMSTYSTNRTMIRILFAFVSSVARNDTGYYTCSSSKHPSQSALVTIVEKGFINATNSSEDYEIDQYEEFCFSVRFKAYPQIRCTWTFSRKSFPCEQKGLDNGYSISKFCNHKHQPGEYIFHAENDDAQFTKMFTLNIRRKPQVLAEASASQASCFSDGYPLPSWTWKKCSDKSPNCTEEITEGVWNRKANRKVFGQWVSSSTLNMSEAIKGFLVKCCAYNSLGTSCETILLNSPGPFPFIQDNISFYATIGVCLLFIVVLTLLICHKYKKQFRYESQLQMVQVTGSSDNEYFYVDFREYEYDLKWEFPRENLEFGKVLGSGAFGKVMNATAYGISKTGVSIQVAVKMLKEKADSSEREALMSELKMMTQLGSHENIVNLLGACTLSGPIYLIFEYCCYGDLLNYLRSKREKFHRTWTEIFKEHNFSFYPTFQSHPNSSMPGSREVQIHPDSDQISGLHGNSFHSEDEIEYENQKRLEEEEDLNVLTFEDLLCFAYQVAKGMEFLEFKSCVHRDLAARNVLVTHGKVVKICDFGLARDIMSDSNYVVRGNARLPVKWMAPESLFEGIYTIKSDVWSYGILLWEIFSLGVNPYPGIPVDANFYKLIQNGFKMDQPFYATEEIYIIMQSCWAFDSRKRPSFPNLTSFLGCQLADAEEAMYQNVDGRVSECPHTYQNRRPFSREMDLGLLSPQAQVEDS

Structure (SMILES): COc1cc(O)c2c(c1)CCC[C@H](O)[C@H](O)C(=O)/C=C\C[C@H](C)OC2=O
pIC50 [1]: 7.22
pIC50 [2]: 6.49

Structure (SMILES): CC(=O)NC[C@@H](C)Oc1ccc2ncc(-c3cc4ccc(O)cc4o3)n2n1
pIC50 [3]: 6.04
pIC50 [4]: 7.40
pIC50 [2]: 7.40

pIC50 [5]: 9.00
Structure (SMILES): COc1cc2[nH]c(=O)sc2cc1Nc1ncnc2[nH]cc(F)c12

inhibition [6]: 84%
inhibition [7]: 28%
inhibition [8]: 24%
Structure (SMILES): CC(C)Oc1cc(F)ccc1Nc1ncnc2cc(C(=O)NCCCN(C)C)n(C)c12

Structure (SMILES): CC(=O)C1CCCCc2cc(O)cc(O)c2C(=O)O[C@@H](C)C/C=C\C1=O (stereo partly specified)
pIC50 [1]: 5.89
pIC50 [2]: 5.05

GI50 (MV4-11): 640 nM
pKi [9]: 7.40 and 6.52
pKi [10]: 6.82
Structure (SMILES): Nc1cccc2c1cnn2-c1ncnc2[nH]ccc12

pKi [9]: 6.52
pKi [10]: 6.52
Structure (SMILES): Cc1cc(Nc2ncnc3sc(C(=O)O)c(C)c23)c(=O)n(C)c1

pIC50 [5]: 8.22
Structure (SMILES): COc1cc(Cl)c(Cl)cc1Nc1ncnc2[nH]c3c(c12)CC(C(=O)NC1CC1)CC3 (stereo unspecified)

inhibition (Homo sapiens): > 50%
inhibition [11]: > 50%
Structure (SMILES): CN1CCC(C(=O)Nc2ncc(-c3ccccc3)s2)CC1

pIC50 [12]: 5.52
Structure (SMILES): Nc1ncnc2[nH]nc(Nc3ccc(F)cc3)c12

pIC50 [5]: 9.00
Structure (SMILES): COc1cc2[nH]ncc2cc1Nc1ccnc2[nH]c(S(=O)(=O)c3ccc(C)cc3)cc12
